Biological target: T1, 5-lipoxygenase (Mus musculus, UniProt P48999)
T1 construct: The supernatant is used as a 5-lipogenase enzyme solution; endogenous in cells
T1 sequence (P48999 1-674): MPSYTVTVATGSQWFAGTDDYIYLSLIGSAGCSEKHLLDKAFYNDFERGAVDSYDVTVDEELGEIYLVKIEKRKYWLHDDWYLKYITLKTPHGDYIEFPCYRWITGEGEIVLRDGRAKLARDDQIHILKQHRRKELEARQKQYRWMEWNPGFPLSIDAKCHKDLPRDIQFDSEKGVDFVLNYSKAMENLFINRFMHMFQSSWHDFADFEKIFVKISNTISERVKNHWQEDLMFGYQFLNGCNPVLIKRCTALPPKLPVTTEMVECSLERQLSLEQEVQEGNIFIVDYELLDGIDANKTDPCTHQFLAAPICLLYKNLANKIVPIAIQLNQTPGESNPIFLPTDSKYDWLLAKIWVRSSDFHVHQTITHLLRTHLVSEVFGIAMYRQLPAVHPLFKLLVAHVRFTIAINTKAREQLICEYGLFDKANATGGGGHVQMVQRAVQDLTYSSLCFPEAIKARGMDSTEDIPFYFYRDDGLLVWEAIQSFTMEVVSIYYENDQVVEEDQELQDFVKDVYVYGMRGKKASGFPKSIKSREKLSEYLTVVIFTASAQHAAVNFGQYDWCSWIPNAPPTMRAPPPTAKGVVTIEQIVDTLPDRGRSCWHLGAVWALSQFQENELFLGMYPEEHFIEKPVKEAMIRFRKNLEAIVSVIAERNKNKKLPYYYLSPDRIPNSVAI
Test: 5-Lipoxygenase-inhibiting Activity (decrease in 5-HETE and LTB4 formed from radiolabelled arachidonic acid, enzyme solution from mouse mastcytoma cells P-815)
Assay type: biochemical
Settings: not given
Summary of the method: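 Enzyme is sonicated 10,000 rpm supernatant of P-815 mouse mastocytoma cells, reacted 5 min at 37 °C with radiolabelled arachidonic acid, indomethacin and CaCl2 in pH 7.4 phosphate buffer. 5-HETE and LTB4 separated by TLC and counted by scintillation; IC50 or IC30 is concentration reducing product to 50% or 30% of control.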

| Structure (SMILES) | IC50 [nM] |
| --- | --- |
| COc1cc(/C=C/C=C/C(=O)N2CCN(CCOC(c3ccccc3)c3ccccc3)CC2)ccc1O [Example 89, N-[5-(3-methoxy-4-hydroxyphenyl)-2,4-pentadienoyl]-N'-(2-benzhydroxyethyl)piperazine] | 60 |
| COc1cc(/C=C/C=C/C(=O)N2CCN(CCOC(c3ccccc3)c3ccccc3)CC2)cc(OC)c1O [Example 98, N-[5-(3,5-dimethoxy-4-hydroxyphenyl)-2,4-pentadienoyl)-N'-(2-benzhydroxyethyl)piperazine] | 9 |

Same assay, conditions: 5-HETE and LTB4 formation; mouse mastcytoma P-815 enzyme solution; 37° C., 5 min; pH 7.4; with indomethacin; read-out: 50% Inhibitory concentration IC50

| Structure (SMILES) | IC50 [nM] |
| --- | --- |
| COc1cc(/C=C/C=C/C(=O)NCCOC(c2ccccc2)c2ccccc2)ccc1O [Example 91, 2-[5-(3-methoxy-4-hydroxy)phenyl-2,4-pentadienoyl]aminoethyl benzhydryl ether] | 60 |
| COc1cc(/C=C/C=C/C(=O)NCCCOC(c2ccccc2)c2ccccc2)ccc1O [Example 92, 3-[5-[3-methoxy-4-hydroxyphenyl)-2,4-pentadienoyl]aminopropyl benzhydryl ether] | 90 |
| COc1ccc(/C=C/C=C/C(=O)N2CCN(CCCOC(c3ccccc3)c3ccccc3)CC2)cc1OC [Example 94, N-[5-(3,4-dimethoxyphenyl)-2,4-pentadienoyl]-N'-(3-benzhydroxypropyl)piperazine] | 4000 |
| COc1cc(/C=C/C=C/C(=O)NCCn2cnc3c2c(=O)n(C)c(=O)n3C)cc(OC)c1OC [Example 95] | 9000 |
| COc1cc(/C=C/C=C/C(=O)NCCOC(c2ccccc2)c2ccccc2)cc(OC)c1O [Example 100, 2-[5-(3,5-dimethoxy-4-hydroxy)phenyl-2,4-pentadienoyl]aminoethyl benzhydryl ether] | 10 |
| COc1cc(/C=C/C(=O)N2CCN(CCOC(C)(c3ccccc3)c3ccc(Cl)cc3)CC2)ccc1O (centres unmarked) [Example 102, N-[3-[3-methoxy-4-hydroxyphenyl)-2-propenoyl]-N'-[2-[1-phenyl-1-(p-chlorophenyl)ethoxy]ethyl]piperazine] | 200 |
| COc1cc(/C=C/C(=O)N2CCN(CCn3cnc4c3c(=O)n(C)c(=O)n4C)CC2)ccc1O [Example 103, 7-[2-[4-[3(3-methoxy-4-hydroxyphenyl)-2-propenoyl]piperazin-1-yl]-ethyl]theophilline] | 30000 |
| COc1ccc(/C=C/C(=O)N2CCN(CCCOC(C)(c3ccccc3)c3ccc(Cl)cc3)CC2)cc1OC (centres unmarked) [Example 104, N-[3-(3,4-dimethoxy)phenyl-2-propenoyl]-N'-[3-[1-phenyl-1-(p-chlorophenyl)ethoxy]propyl]piperazine] | 10000 |
| COc1cc(/C=C/C(=O)N2CCN(CCCOC(C)(c3ccccc3)c3ccc(Cl)cc3)CC2)cc(OC)c1O (centres unmarked) [Example 106, N-[3-(3,5-dimethoxy-4-hydroxy)phenyl-2-propenoyl]-N'-[3-[1-phenyl-1-(p-chlorophenyl)ethoxy]propyl]piperazine] | 10 |
| CC(OCCN1CCN(C(=O)/C=C/C=C/c2ccc(O)c(O)c2)CC1)(c1ccccc1)c1ccc(Cl)cc1 (centres unmarked) [Example 107, N-[5-(3,4-dihydroxyphenyl)-2,4-pentadienoyl]-N-[2-[1-phenyl-1-(p-chlorophenyl)-ethoxy]ethyl]piperazine] | 10 |
| CC(OCCCN1CCN(C(=O)/C=C/C=C/c2ccc(O)c(O)c2)CC1)(c1ccccc1)c1ccc(Cl)cc1 (centres unmarked) [Example 108, N-[5-(3,4-dihydroxy)phenyl-2,4-pentadienoyl]-N'-[3-[1-phenyl-1-(p-chlorophenyl)ethoxy]propyl]piperazine] | 8 |
| Cn1c(=O)c2c(ncn2CCN2CCN(C(=O)/C=C/C=C/c3ccc(O)c(O)c3)CC2)n(C)c1=O [Example 109] | 2000 |
| COc1cc(/C=C/C=C/C(=O)N2CCN(CCn3cnc4c3c(=O)n(C)c(=O)n4C)CC2)ccc1O [Example 112] | 2000 |
| COc1cc(/C=C/C=C/C(=O)N2CCN(CCOC(C)(c3ccccc3)c3ccc(Cl)cc3)CC2)cc(OC)c1O (centres unmarked) [Example 113, N-[5-(3,5-dimethoxy-4-hydroxyphenyl]-2,4-pentadienoyl]-N'-[2-[1-phenyl-1-(p-chlorophenyl)ethoxy]ethyl]piperazine] | 20 |
| COc1cc(/C=C/C=C/C(=O)N2CCN(CCn3cnc4c3c(=O)n(C)c(=O)n4C)CC2)cc(OC)c1OC [Example 115, 7-[2-[4-[5-(3,4,5-trimethoxyphenyl)-2,4-pentadienoyl]piperazin-1-yl]ethyl]theophylline] | 20000 |
| COc1cc(/C=C/C(=O)NCCN2CCC(OC(c3ccccc3)c3ccccc3)CC2)cc(OC)c1O [Example 117, 1-[2-[3-(3,5-dimethoxy-4-hydroxyphenyl)-2-propenoyl]aminoethyl]-4-benzhydroxypiperidine] | 20 |
| O=C(/C=C/C=C/c1ccc(O)c(O)c1)NCCN1CCC(OC(c2ccccc2)c2ccccc2)CC1 [Example 118] | 30 |
| COc1cc(/C=C/C=C/C(=O)NCCN2CCC(OC(c3ccccc3)c3ccccc3)CC2)ccc1O [Example 119, 1-[2-[5-(3-methoxy-4-hydroxyphenyl)-2,4-pentadienoyl]aminoethyl]4-benzhydroxypiperidine] | 9 |
| Cn1c(=O)c2c(ncn2CCCCN2CCN(C(=O)/C=C/c3ccc(O)c(O)c3)CC2)n(C)c1=O [Example 121, 7-[4-[4-{3-(3,4-dihydroxyphenyl)-2-propenoyl}piperazi-1-nyl]butyl]theophylline] | 5000 |
| O=C(/C=C/c1ccc(O)c(O)c1)NCCCN1CCC(OC(c2ccccc2)c2ccccc2)CC1 [Example 122, 1-[3-[3-(3,4-dihydroxyphenyl)-2-propenoyl]aminopropyl]-4-benzhydroxypiperidine] | 10 |
| COc1cc(/C=C/C(=O)N2CCN(CCCn3cnc4c3c(=O)n(C)c(=O)n4C)CC2)ccc1O [Example 123] | 10000 |

The next lines start with the values.

| IC50 [nM] | Structure (SMILES) |
| --- | --- |
| 60 | COc1cc(/C=C/C=C/C(=O)N2CCN(CCCOC(c3ccccc3)c3ccccc3)CC2)ccc1O [Example 90, N-[5-(3-methoxy-4-hydroxyphenyl)-2,4-pentadienoyl]-N'-(3-benzhydroxypropyl)piperazine] |
| 3000 | COc1ccc(/C=C/C=C/C(=O)NCCCCN2CCN(C(c3ccccc3)c3ccccc3)CC2)cc1OC [Example 93] |
| 20 | COc1cc(/C=C/C=C/C(=O)NCCCCN2CCN(C(c3ccccc3)c3ccc(Cl)cc3)CC2)cc(OC)c1O (centres unmarked) [Example 96, N-p-chlorobenzhydryl-N'-5-(3,5-dimethoxy-4-hydroxy)phenyl-2,4-pentadienlylaminobutylpiperazine] |
| 40 | COc1cc(/C=C/C=C/C(=O)NCCCCN2CCN(C(c3ccccc3)c3ccccc3)CC2)cc(OC)c1O [Example 97, N-benzhydryl-N'-[4-[5-(3,5-dimethoxy-4-hydroxy)phenyl-2,4-pentadienoyl]aminobutyl]] |
| 30 | COc1cc(/C=C/C=C/C(=O)N2CCN(CCCOC(c3ccccc3)c3ccccc3)CC2)cc(OC)c1O [Example 99] |
| 10 | CC(OCCCN1CCN(C(=O)/C=C/c2ccc(O)c(O)c2)CC1)(c1ccccc1)c1ccc(Cl)cc1 (centres unmarked) [Example 101, N-[3-(3,4-dihydroxyphenyl)-2-propenoyl]-N'-[3-[1-phenyl-1-(p-chlorophenyl)ethoxy]propyl]piperazine] |
| 10 | COc1cc(/C=C/C(=O)N2CCN(CCOC(C)(c3ccccc3)c3ccc(Cl)cc3)CC2)cc(OC)c1O (centres unmarked) [Example 105, N-[3-(3,5-dimethoxy-4-hydroxyphenyl)-2-propenoyl]-N'-[2-[1-phenyl-1-(p-chlorophenyl)ethoxy]ethyl]piperazine] |
| 10 | COc1cc(/C=C/C=C/C(=O)N2CCN(CCOC(C)(c3ccccc3)c3ccc(Cl)cc3)CC2)ccc1O (centres unmarked) [Example 110, N-[5-(3-methoxy-4-hydroxyphenyl)-2,4-pentadienoyl]-N'-[2-[1-phenyl-1-(p-chlorophenyl)ethoxy]ethyl]piperazine] |
| 10 | COc1cc(/C=C/C=C/C(=O)N2CCN(CCCOC(C)(c3ccccc3)c3ccc(Cl)cc3)CC2)ccc1O (centres unmarked) [Example 111, N-[5-(3-methoxy-4-hydroxy)phenyl-2,4-pentadienoyl)-N'-[3-[1-phenyl-1-(p-chlorophenyl)ethoxy]propyl]piperazine] |
| 2000 | COc1cc(/C=C/C=C/C(=O)N2CCN(CCn3cnc4c3c(=O)n(C)c(=O)n4C)CC2)cc(OC)c1O [Example 114] |
| 400 | COc1cc(/C=C/C(=O)NCCN2CCC(OC(c3ccccc3)c3ccccc3)CC2)ccc1O [Example 116, 1-[2-[3-(3-methoxy-4-hydroxyphenyl)-2-propenoyl]aminoethyl]-4-benzhydroxypiperidine] |
| 10 | COc1cc(/C=C/C=C/C(=O)NCCN2CCC(OC(c3ccccc3)c3ccccc3)CC2)cc(OC)c1O [Example 120, 1-[2-[5-(3,5-dimethoxy-4-hydroxyphenyl)-2,4-pentadienoyl]aminoethyl]-4-benzhydroxypiperidine] |
